Results on five compounds are retold here after patent US11395847B2, “Acylated GLP-1/GLP-2 dual agonists” (Zealand Pharma A/S, priority 2016, dated 2022).

Where a SMILES comes first, the peptide text is derived from it.

In one data set the target is T1, human GLP-2 receptor (Homo sapiens, UniProt O95838, D470N).
T1 construct: expressed in transfected cells
T1 sequence (O95838 1-553 D470N): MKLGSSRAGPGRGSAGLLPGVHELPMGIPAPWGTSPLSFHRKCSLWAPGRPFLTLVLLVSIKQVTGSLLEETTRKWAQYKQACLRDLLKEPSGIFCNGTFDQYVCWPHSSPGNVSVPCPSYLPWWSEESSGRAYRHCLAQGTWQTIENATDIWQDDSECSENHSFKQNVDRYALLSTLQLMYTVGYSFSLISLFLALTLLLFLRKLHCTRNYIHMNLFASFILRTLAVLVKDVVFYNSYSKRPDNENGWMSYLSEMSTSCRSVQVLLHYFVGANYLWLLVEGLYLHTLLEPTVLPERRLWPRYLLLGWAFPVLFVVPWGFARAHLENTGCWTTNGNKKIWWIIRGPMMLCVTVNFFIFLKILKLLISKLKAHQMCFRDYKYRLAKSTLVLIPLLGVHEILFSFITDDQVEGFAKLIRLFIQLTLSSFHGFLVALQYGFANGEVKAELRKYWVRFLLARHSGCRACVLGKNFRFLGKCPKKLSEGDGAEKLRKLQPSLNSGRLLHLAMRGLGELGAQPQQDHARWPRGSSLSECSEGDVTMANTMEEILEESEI
Briefly: GLP-2 receptor potency assay (cAMP ALPHASCREEN, HEK293 cells stably expressing GLP-2 R). It is filed as cell-based. Particulars: cAMP response, HEK293 cells expressing human GLP-2 R; read-out: EC50 GLP-2. In short, it runs like this: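 HEK293 clones stably transfected with the human GLP-2 receptor, selected with G418, were used. Intracellular cAMP was quantified by AlphaScreen. Responses were normalised to positive and vehicle controls, and EC50 and maximal response were taken from concentration-response curves.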

In another data set the target is T2, human GLP-1 receptor (Homo sapiens, UniProt P43220).
T2 construct: expressed in transfected cells
T2 sequence (P43220 24-463): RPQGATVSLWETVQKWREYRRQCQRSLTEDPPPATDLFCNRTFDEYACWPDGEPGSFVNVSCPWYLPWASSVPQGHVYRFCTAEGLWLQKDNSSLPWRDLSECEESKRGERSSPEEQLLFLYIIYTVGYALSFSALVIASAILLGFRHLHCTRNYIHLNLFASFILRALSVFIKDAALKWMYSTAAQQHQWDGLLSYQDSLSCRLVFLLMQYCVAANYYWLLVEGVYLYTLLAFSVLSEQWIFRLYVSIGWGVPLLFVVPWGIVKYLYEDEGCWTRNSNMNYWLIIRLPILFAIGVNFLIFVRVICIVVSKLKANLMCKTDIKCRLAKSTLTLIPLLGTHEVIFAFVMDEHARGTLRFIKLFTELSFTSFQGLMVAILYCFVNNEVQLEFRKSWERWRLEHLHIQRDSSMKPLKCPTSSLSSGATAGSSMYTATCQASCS
The data set can be described thus: GLP-1 receptor potency assay (cAMP ALPHASCREEN, HEK293 cells stably expressing GLP-1 R). Particulars: cAMP response, HEK293 cells expressing human GLP-1 R. The class given is cell-based. In short, it runs like this:
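Clonal HEK293 line stably transfected with human GLP-1R (G418-selected) was treated with test compounds and the cAMP response quantified by ALPHASCREEN. Signals were normalized to positive control and vehicle, with EC50 and maximal response taken from concentration-response curves.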
For orientation: Alpha assays give light when donor and acceptor beads are brought close together.

The nature of data set [1]: Chemical stability (RP-HPLC normalized purity after incubation at 40° C.). Particulars: 14-day incubation, 0.2 mg/ml, normalized purity (area-%). It is filed as physicochemical. The gist of the method: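 Peptide at 0.2 mg/ml final in water adjusted to pH 6, 7, 7.5 or 9, incubated at 40° C for 14 days. Purity measured as main-peak area-% by C18 RP-HPLC (acetonitrile/TFA/water gradient, UV 220 nm) and normalized to T=0 set at 100 for each pH.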

Regarding `CC[C@H](C)[C@H](NC(=O)[C@H](Cc1ccccc1)NC(=O)[C@H](CC(=O)O)NC(=O)[C@H](CCCNC(=N)N)NC(=O)[C@H](C)NC(=O)[C@H](C)NC(=O)[C@H](CCC(N)=O)NC(=O)[C@H](CCCCNC(=O)CC[C@H](NC(=O)CCCCCCCCCCCCCCCCC(=O)O)C(=O)O)NC(=O)[C@H](CC(=O)O)NC(=O)[C@H](CC(C)C)NC(=O)[C@@H](NC(=O)[C@@H](NC(=O)[C@H](C)NC(=O)[C@H](CC(C)C)NC(=O)[C@H](CCC(=O)O)NC(=O)[C@H](CO)NC(=O)[C@H](CO)NC(=O)[C@H](Cc1ccccc1)NC(=O)[C@H](CO)NC(=O)CNC(=O)[C@H](CC(=O)O)NC(=O)C(C)(C)NC(=O)[C@@H](N)Cc1c[nH]cn1)[C@@H](C)O)[C@@H](C)CC)C(=O)N[C@@H](C)C(=O)N[C@@H](Cc1c[nH]c2ccccc12)C(=O)N[C@@H](CC(C)C)C(=O)N[C@H](C(=O)N[C@@H](CCC(N)=O)C(=O)N[C@@H](Cc1c[nH]cn1)C(=O)N[C@@H](CCCCN)C(=O)N[C@H](C(=O)N[C@H](C(=O)N[C@@H](CC(=O)O)C(=O)O)[C@@H](C)O)[C@@H](C)CC)[C@@H](C)CC` [A, reference compound] (HELM PEPTIDE1{H.[Aib].D.G.S.F.S.S.E.L.A.T.I.L.D.K.Q.A.A.R.D.F.I.A.W.L.I.Q.H.K.I.T.D}|PEPTIDE2{[O=C(O)CCCCCCCCCCCCCCCCC(=O)[*:2]].[gGlu]}$PEPTIDE1,PEPTIDE2,16:R3-2:R2$$$V2.0), the EC50 (commonly the concentration at which the effect is half-maximal) was 0.083 nM on human GLP-2 receptor and 0.49 nM on human GLP-1 receptor. The “pH 6 normalized stability” value in data set [1] (pH 6, 40° C.) is recorded as “C (<80% normalized stability)”. Also, the “pH 7 normalized stability” value in data set [1] (pH 7, 40° C.) is listed as “B (>80% stability)”.

For the compound `CC[C@H](C)[C@H](NC(=O)[C@H](Cc1ccccc1)NC(=O)[C@H](CC(=O)O)NC(=O)[C@H](CCCNC(=N)N)NC(=O)[C@H](C)NC(=O)[C@H](C)NC(=O)[C@H](CCC(N)=O)NC(=O)[C@H](CCCCNC(=O)[C@H](CCCCN)NC(=O)[C@H](CCC(=O)O)NC(=O)[C@H](CCCCN)NC(=O)CC[C@H](NC(=O)CCCCCCCCCCCCCCCCCCC(=O)O)C(=O)O)NC(=O)[C@H](CC(=O)O)NC(=O)[C@H](CC(C)C)NC(=O)[C@@H](NC(=O)[C@@H](NC(=O)[C@H](C)NC(=O)[C@H](CC(C)C)NC(=O)[C@H](CCC(=O)O)NC(=O)[C@H](CO)NC(=O)[C@@H](NC(=O)[C@H](Cc1ccccc1)NC(=O)[C@@H](NC(=O)CNC(=O)[C@H](CCC(=O)O)NC(=O)C(C)(C)NC(=O)[C@@H](N)Cc1c[nH]cn1)[C@@H](C)O)[C@@H](C)O)[C@@H](C)O)[C@@H](C)CC)C(=O)N[C@@H](C)C(=O)N[C@@H](Cc1c[nH]c2ccccc12)C(=O)N[C@@H](CC(C)C)C(=O)N[C@H](C(=O)N[C@@H](CCC(N)=O)C(=O)N[C@@H](Cc1c[nH]cn1)C(=O)N[C@@H](CCCCN)C(=O)N[C@H](C(=O)N[C@H](C(=O)N[C@@H](CC(=O)O)C(=O)O)[C@@H](C)O)[C@@H](C)CC)[C@@H](C)CC` [Compound 51] (HELM PEPTIDE1{H.[Aib].E.G.T.F.T.S.E.L.A.T.I.L.D.K.Q.A.A.R.D.F.I.A.W.L.I.Q.H.K.I.T.D}|PEPTIDE2{[O=C(O)CCCCCCCCCCCCCCCCCCC(=O)[*:2]].[gGlu].K.E.K}$PEPTIDE1,PEPTIDE2,16:R3-5:R2$$$V2.0), the EC50 worked out at 0.18 nM at human GLP-2 receptor and 0.02 nM on human GLP-1 receptor.

Turning to `CC[C@H](C)[C@H](NC(=O)[C@H](Cc1ccccc1)NC(=O)[C@H](CC(=O)O)NC(=O)[C@H](CCCNC(=N)N)NC(=O)[C@H](C)NC(=O)[C@H](C)NC(=O)[C@H](CCCCNC(=O)COCCOCCNC(=O)[C@H](CCCCN)NC(=O)[C@H](CCC(=O)O)NC(=O)[C@H](CCCCN)NC(=O)CC[C@H](NC(=O)CCCCCCCCCCCCCCCCCCC(=O)O)C(=O)O)NC(=O)CNC(=O)[C@H](CCC(=O)O)NC(=O)[C@H](CC(C)C)NC(=O)[C@@H](NC(=O)[C@@H](NC(=O)[C@H](C)NC(=O)[C@H](CC(C)C)NC(=O)[C@H](CCC(=O)O)NC(=O)[C@H](CO)NC(=O)[C@@H](NC(=O)[C@H](Cc1ccccc1)NC(=O)[C@H](CO)NC(=O)CNC(=O)[C@H](CCC(=O)O)NC(=O)C(C)(C)NC(=O)[C@@H](N)Cc1c[nH]cn1)[C@@H](C)O)[C@@H](C)O)[C@@H](C)CC)C(=O)N[C@@H](C)C(=O)N[C@@H](Cc1c[nH]c2ccccc12)C(=O)N[C@@H](CC(C)C)C(=O)N[C@H](C(=O)N[C@@H](CCC(=O)O)C(=O)N[C@@H](Cc1c[nH]cn1)C(=O)N[C@@H](CCCCN)C(=O)N[C@H](C(=O)N[C@H](C(=O)N[C@@H](CC(=O)O)C(=O)O)[C@@H](C)O)[C@@H](C)CC)[C@@H](C)CC` [Compound 61] (HELM PEPTIDE1{H.[Aib].E.G.S.F.T.S.E.L.A.T.I.L.E.G.K.A.A.R.D.F.I.A.W.L.I.E.H.K.I.T.D}|PEPTIDE2{[O=C(O)CCCCCCCCCCCCCCCCCCC(=O)[*:2]].[gGlu].K.E.K.[O=C(COCCOCCN[*:1])[*:2]]}$PEPTIDE1,PEPTIDE2,17:R3-6:R2$$$V2.0), the EC50 on human GLP-2 receptor was 0.2 nM; on human GLP-1 receptor, 0.13 nM.

For `CC[C@H](C)[C@H](NC(=O)[C@H](Cc1ccccc1)NC(=O)[C@H](CC(=O)O)NC(=O)[C@H](CCCNC(=N)N)NC(=O)[C@H](C)NC(=O)[C@H](C)NC(=O)[C@H](CCCCNC(=O)COCCOCCNC(=O)[C@H](CCCCN)NC(=O)[C@H](CCC(=O)O)NC(=O)[C@H](CCCCN)NC(=O)CC[C@H](NC(=O)CCCCCCCCCCCCCCCCCCC(=O)O)C(=O)O)NC(=O)[C@H](C)NC(=O)[C@H](CC(=O)O)NC(=O)[C@H](CC(C)C)NC(=O)[C@@H](NC(=O)[C@@H](NC(=O)[C@H](C)NC(=O)[C@H](CC(C)C)NC(=O)[C@H](CCC(=O)O)NC(=O)[C@H](CO)NC(=O)[C@@H](NC(=O)[C@H](Cc1ccccc1)NC(=O)[C@H](CO)NC(=O)CNC(=O)[C@H](CCC(=O)O)NC(=O)C(C)(C)NC(=O)[C@@H](N)Cc1c[nH]cn1)[C@@H](C)O)[C@@H](C)O)[C@@H](C)CC)C(=O)N[C@@H](C)C(=O)N[C@@H](Cc1c[nH]c2ccccc12)C(=O)N[C@@H](CC(C)C)C(=O)N[C@H](C(=O)N[C@@H](CCC(=O)O)C(=O)N[C@@H](Cc1c[nH]cn1)C(=O)N[C@@H](CCCCN)C(=O)N[C@H](C(=O)N[C@H](C(=O)N[C@@H](CC(=O)O)C(=O)O)[C@@H](C)O)[C@@H](C)CC)[C@@H](C)CC` [Compound 62] (HELM PEPTIDE1{H.[Aib].E.G.S.F.T.S.E.L.A.T.I.L.D.A.K.A.A.R.D.F.I.A.W.L.I.E.H.K.I.T.D}|PEPTIDE2{[O=C(O)CCCCCCCCCCCCCCCCCCC(=O)[*:2]].[gGlu].K.E.K.[O=C(COCCOCCN[*:1])[*:2]]}$PEPTIDE1,PEPTIDE2,17:R3-6:R2$$$V2.0), the EC50 was determined as 0.15 nM on human GLP-2 receptor and 0.27 nM at human GLP-1 receptor.

For the compound `CC[C@H](C)[C@H](NC(=O)[C@H](Cc1ccccc1)NC(=O)[C@H](CC(=O)O)NC(=O)[C@H](CCCCNC(=O)COCCOCCNC(=O)[C@H](CCCCN)NC(=O)[C@H](CCC(=O)O)NC(=O)[C@H](CCCCN)NC(=O)CC[C@H](NC(=O)CCCCCCCCCCCCCCCCCCC(=O)O)C(=O)O)NC(=O)[C@H](C)NC(=O)[C@H](C)NC(=O)[C@H](CCC(N)=O)NC(=O)[C@H](CCC(=O)O)NC(=O)[C@H](CC(=O)O)NC(=O)[C@H](CC(C)C)NC(=O)[C@@H](NC(=O)[C@@H](NC(=O)[C@H](C)NC(=O)[C@H](CC(C)C)NC(=O)[C@H](CCC(=O)O)NC(=O)[C@H](CO)NC(=O)[C@@H](NC(=O)[C@H](Cc1ccccc1)NC(=O)[C@@H](NC(=O)CNC(=O)[C@H](CCC(=O)O)NC(=O)C(C)(C)NC(=O)[C@@H](N)Cc1c[nH]cn1)[C@@H](C)O)[C@@H](C)O)[C@@H](C)O)[C@@H](C)CC)C(=O)N[C@@H](C)C(=O)N[C@@H](Cc1c[nH]c2ccccc12)C(=O)N[C@@H](CC(C)C)C(=O)N[C@H](C(=O)N[C@@H](CCC(=O)O)C(=O)N[C@@H](Cc1c[nH]cn1)C(=O)N[C@@H](CCCCN)C(=O)N[C@H](C(=O)N[C@H](C(=O)N[C@@H](CC(=O)O)C(=O)O)[C@@H](C)O)[C@@H](C)CC)[C@@H](C)CC` [Compound 65] (HELM PEPTIDE1{H.[Aib].E.G.T.F.T.S.E.L.A.T.I.L.D.E.Q.A.A.K.D.F.I.A.W.L.I.E.H.K.I.T.D}|PEPTIDE2{[O=C(O)CCCCCCCCCCCCCCCCCCC(=O)[*:2]].[gGlu].K.E.K.[O=C(COCCOCCN[*:1])[*:2]]}$PEPTIDE1,PEPTIDE2,20:R3-6:R2$$$V2.0), the EC50 stood at 0.35 nM on human GLP-2 receptor and 0.13 nM on human GLP-1 receptor.
